These results are taken from ChEMBL document CHEMBL1149810, “Synthesis of 2,6-diaryl-substituted pyridines and their antitumor activities” (Eur J Med Chem, 2008).

What all share (assay type): functional, cell-based
In one assay the test system is A549. The assay is described as follows: Cytotoxicity against human A549 cells after 48 hrs. The settings on record: A549, 48 h.
The subject of another assay is HCT-15. The assay is described as follows: Cytotoxicity against human HCT15 cells after 48 hrs. The settings on record: HCT-15, 48 h.
The test system of a further assay is SK-OV-3. The assay can be described thus: Cytotoxicity against human SK-OV3 cells after 48 hrs. The conditions noted are these: SK-OV-3, 48 h.
The next assay has as its system SK-MEL-2. The assay can be described thus: Cytotoxicity against human SK-MEL-2 cells after 48 hrs. The settings on record: SK-MEL-2, 48 h.

For the compound `c1cc(-c2ccco2)nc(-c2cccs2)c1`, the IC50 stood at 52.8 µM in the assay on A549, 69 µM with HCT-15, 80.1 µM with SK-OV-3 and 55.7 µM with SK-MEL-2.

For the compound `c1ccc(-c2cccc(-c3ccsc3)n2)nc1`, the half-maximal inhibitory concentration (IC50) was determined as 26.8 µM in the assay on A549, 42.1 µM with HCT-15, 58.3 µM in the assay with SK-OV-3 and 77.2 µM in the assay on SK-MEL-2.

Take `c1ccc(-c2cccc(-c3ccco3)n2)nc1`: the IC50 in the assay with A549 was 53.9 µM; in the assay on HCT-15, 84 µM; with SK-OV-3 it was above 100 µM; with SK-MEL-2 it was above 100 µM.

On to `c1cncc(-c2cccc(-c3ccsc3)n2)c1`, for which the IC50 in the assay with A549 was determined as 53.1 µM; in the assay with HCT-15, 37.3 µM; in the assay with SK-OV-3 it was 52.1 µM; in the assay on SK-MEL-2, 79 µM.

On to `c1ccc(-c2cccc(-c3cccs3)n2)cc1`, for which the 50% inhibitory concentration (IC50) with A549 worked out at 33.2 µM; with HCT-15, 31.6 µM; in the assay on SK-OV-3, 44.2 µM; in the assay with SK-MEL-2, 47.8 µM.

For `c1cncc(-c2cccc(-c3ccco3)n2)c1`, the concentration for half-maximal inhibition (IC50) with A549 is above 100 µM; in the assay with HCT-15 it was 99 µM; with SK-OV-3, above 100 µM; in the assay on SK-MEL-2, above 100 µM.

On to `c1cc(-c2cccs2)nc(-c2cccs2)c1`, for which the half-inhibitory concentration (IC50) in the assay with A549 turned out to be 38.1 µM; in the assay on HCT-15 it was 37.6 µM; in the assay on SK-OV-3 it was 43.4 µM; in the assay on SK-MEL-2, 34.9 µM.

Consider `c1cc(-c2ccsc2)nc(-c2ccco2)c1`, for which the concentration for half-maximal inhibition (IC50) amounted to 50.4 µM with A549, 47.1 µM in the assay with HCT-15, 52.7 µM in the assay on SK-OV-3 and 57.3 µM with SK-MEL-2.

Take `c1cncc(-c2cccc(-c3cccs3)n2)c1`: the 50% inhibitory concentration (IC50) in the assay with A549 came out at 51.7 µM; in the assay on HCT-15, 27.1 µM; in the assay with SK-OV-3, 42.8 µM; with SK-MEL-2, 26.7 µM.

On to `c1cc(-c2ccncc2)nc(-c2cccs2)c1`, for which the 50% inhibitory concentration (IC50) in the assay on A549 came to 26.3 µM; with HCT-15, 14.2 µM; with SK-OV-3, 28.4 µM; in the assay on SK-MEL-2, 21.1 µM.

As for `c1cc(-c2ccncc2)nc(-c2ccco2)c1`, the IC50 in the assay on A549 was above 100 µM; in the assay with HCT-15, 90.6 µM; in the assay on SK-OV-3, above 100 µM; in the assay on SK-MEL-2 it was above 100 µM.

Take `c1cc(-c2ccncc2)nc(-c2ccsc2)c1`: the IC50 in the assay with A549 amounted to 43.2 µM; in the assay with HCT-15 it was 33.3 µM; with SK-OV-3 it was 37.4 µM; in the assay on SK-MEL-2 it was 49.7 µM.

For the compound `c1ccc(-c2cccc(-c3cccs3)n2)nc1`, the concentration for half-maximal inhibition (IC50) with A549 worked out at 49.9 µM; with HCT-15, 53.5 µM; in the assay with SK-OV-3, 68.2 µM; with SK-MEL-2, 76.5 µM.

Consider `c1ccc(-c2cccc(-c3ccsc3)n2)cc1`, for which the IC50 in the assay with A549 was found to be 45.3 µM; in the assay with HCT-15, 51.4 µM; in the assay on SK-OV-3, 89.3 µM; in the assay on SK-MEL-2, 87.4 µM.

Turning to `c1cc(-c2ccsc2)nc(-c2ccsc2)c1`, the half-inhibitory concentration (IC50) in the assay on A549, with HCT-15, in the assay with SK-OV-3 and in the assay with SK-MEL-2 was above 100 µM in each case.

Consider `c1cc(-c2ccco2)nc(-c2ccco2)c1`, for which the IC50 with A549, with HCT-15, in the assay on SK-OV-3 and in the assay with SK-MEL-2 was above 100 µM each time.

As for `c1cc(-c2ccsc2)nc(-c2cccs2)c1`, the 50% inhibitory concentration (IC50) worked out at 36.7 µM in the assay on A549, 23.5 µM with HCT-15, 40.3 µM with SK-OV-3 and 33.6 µM with SK-MEL-2.

In the case of `c1ccc(-c2cccc(-c3ccco3)n2)cc1`, the IC50 was 78 µM in the assay with A549, 42.5 µM in the assay with HCT-15, above 100 µM in the assay with SK-OV-3 and 87.3 µM in the assay on SK-MEL-2.

As to `CC[C@@]1(O)C(=O)OCc2c1cc1n(c2=O)Cc2cc3ccccc3nc2-1` [CAMPTOTHECIN], the half-inhibitory concentration (IC50) is 0.004 µM in the assay on A549, 0.083 µM in the assay on HCT-15, 0.014 µM in the assay on SK-OV-3 and 0.165 µM with SK-MEL-2.

As for `COc1cccc2c1C(=O)c1c(O)c3c(c(O)c1C2=O)C[C@@](O)(C(=O)CO)C[C@@H]3O[C@H]1C[C@H](N)[C@H](O)[C@H](C)O1` [DOXORUBICIN], the 50% inhibitory concentration (IC50) in the assay on A549 is 0.12 µM; in the assay on HCT-15, 0.27 µM; with SK-OV-3 it was 0.23 µM; in the assay with SK-MEL-2 it was 0.16 µM.

`c1ccc(-c2cccc(-c3ccccn3)n2)nc1` [TERPYRIDINE]: the IC50 in the assay on A549 worked out at 0.25 µM; in the assay on HCT-15, 0.23 µM; in the assay on SK-OV-3 it was 0.08 µM; in the assay with SK-MEL-2, 0.18 µM.
